This passage reports IC50 results from patent US5817670A, “Naphthyridine derivatives and pharmaceutical compositions thereof” (Yamanouchi Pharmaceutical Co., Ltd., priority 1994, dated 1998).

Each structure is given as a SMILES string.

For orientation: IC50 means the concentration that inhibits the measured activity by half. High values mean weaker potency in that assay, low ones greater potency in that assay.

Assay [1] addresses T1, type II phosphodiesterase (Rattus norvegicus, UniProt Q01062).
T1 construct: purified from rat heart muscle cells; from tissue; host or cells: rat heart, soluble fraction, Q Sepharose
T1 sequence (Q01062 1-928): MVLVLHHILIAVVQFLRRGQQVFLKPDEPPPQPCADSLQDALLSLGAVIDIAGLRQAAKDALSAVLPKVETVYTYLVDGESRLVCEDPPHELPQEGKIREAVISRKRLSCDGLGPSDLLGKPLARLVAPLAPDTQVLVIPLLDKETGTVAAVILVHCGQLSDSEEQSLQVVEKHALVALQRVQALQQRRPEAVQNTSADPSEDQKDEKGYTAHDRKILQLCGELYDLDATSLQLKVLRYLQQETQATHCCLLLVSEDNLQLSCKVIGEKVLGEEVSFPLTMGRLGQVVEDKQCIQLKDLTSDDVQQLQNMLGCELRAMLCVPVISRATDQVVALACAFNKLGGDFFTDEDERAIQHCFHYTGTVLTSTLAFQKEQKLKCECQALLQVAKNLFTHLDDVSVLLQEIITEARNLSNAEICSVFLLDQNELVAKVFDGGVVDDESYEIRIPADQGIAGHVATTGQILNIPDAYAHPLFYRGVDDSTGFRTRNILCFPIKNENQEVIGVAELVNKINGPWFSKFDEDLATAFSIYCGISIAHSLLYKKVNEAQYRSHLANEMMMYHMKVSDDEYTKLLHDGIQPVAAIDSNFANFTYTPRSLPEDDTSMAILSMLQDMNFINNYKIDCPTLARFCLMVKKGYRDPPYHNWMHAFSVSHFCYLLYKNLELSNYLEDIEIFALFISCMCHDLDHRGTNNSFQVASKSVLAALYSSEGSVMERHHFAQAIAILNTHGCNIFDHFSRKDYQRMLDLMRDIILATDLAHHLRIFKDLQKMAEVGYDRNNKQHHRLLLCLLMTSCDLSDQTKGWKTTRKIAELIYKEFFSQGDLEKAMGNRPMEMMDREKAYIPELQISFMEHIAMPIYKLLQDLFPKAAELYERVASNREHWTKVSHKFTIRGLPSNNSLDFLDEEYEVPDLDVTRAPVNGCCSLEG
Kind of assay: Phosphodiesterase inhibition activity (in vitro), Type II. The format is biochemical. Conditions: Type II phosphodiesterase column. The source says: (§1) (A) In order to evaluate selectivity of the compounds of the present invention for type IV phosphodiesterase, types I, II, III and V phosphodiesterase isozymes were purified in the following manner.
1) Solutions containing various phosphodiesterase (types I, II and III) isozymes were purified from rat heart muscle cells in the following manner. Under ether anesthesia, Wistar rat was subjected to thoracotomy to excise the heart. After removing blood by perfusion with physiological saline supplemented with heparin (1 unit/ml), the heart was finely chopped with scissors. This was suspended in buffer A (20 mM Bis-Tris, 5 mM dithioerythritol, 2 mM EGTA and 50 mM sodium acetate, pH 6.5) containing a protease inhibitor (50 μM phenyl-methyl-sulfonyl-fluoride, 5 μM pepstatin A, 40 μM leupeptin, 20 μM aprotinin or 2 mM benzamidine) and then the cells were disrupted using polytron and sonicator and subjected to ultracentrifugation (4° C., 100,000×g, 60 minutes) to give a soluble fraction.
(§2) 2) Solutions containing various phosphodiesterase isozymes were obtained from the thus obtained soluble fraction in the following manner. The thus, obtained soluble fraction was applied to a column of 1.6×10.0 cm packed with Q Sepharose which had been equilibrated with buffer A. Next, said column was washed with 300 ml of buffer A to remove non-absorbed protein. Phosphodiesterase was eluted with 200 ml of buffer A having 0.05 to 1.25M linear gradient of sodium acetate to collect about 40 fractions each containing 5.0 ml eluate. Each fraction was checked for cAMP- and cGMP-metabolizing phosphodiesterase activities. Of these fractions, a fraction having only cAMP-metabolizing activity and showing disappearance of the metabolizing activity by 0.1 μM cilostamide (a type III phosphodiesterase selective inhibitor) was used as the type III phosphodiesterase. […] These fractions were separately collected to be used as phosphodiesterase (types I, II and III) stock solutions for the examination of selectivity. p1 3) A solution containing type V phosphodiesterase was prepared from peripheral blood of a healthy person in the following manner. A 200 ml portion of physiological saline supplemented with dextran (3%) was added to 500 ml of heparinized peripheral blood and incubated at 37° C. for 40 minutes to effect precipitation of erythrocytes. The supernatant fluid after precipitation of erythrocytes was recovered and centrifuged once, and the resulting precipitate was suspended in buffer B (140 mM NaCl, 5 mM KCl, 5 mm glucose and 10 mM HEPES, pH 7.4), overlaid on a solution for density gradient centrifugation use (Ficoll solution) and then centrifuged at room temperature for 40 minutes at 450×g, thereby separating monocyte fraction and granulocyte fraction. The granulocyte fraction was washed once with buffer C (140 mM NaCl, 5 mM KCl, 1 mM CaCl2, 1 mM MgCl2, 5 mM glucose and 10 mM HEPES, pH 7.4) and suspended in buffer D (20 mM Bis-Tris, 5 mM dithioerythritol, 2 mM EGTA and 50 mM sodium acetate, pH 6.5) containing a protease inhibitor (40 μM leupeptin, 5 μM pepstatin A, 20 μM aprotinin, 50 μM phenyl-methyl-sulfonyl-fluoride or 2 mM benzamidine) and then the cells were disrupted using polytron and sonicator and subjected to ultracentrifugation (4° C., 100,000×g, 60 minutes) to give a soluble fraction.
(§3) (B) Inhibitory activities were measured using the thus obtained stock solutions of various phosphodiesterase isozymes.
(§4) 1) A predetermined amount of each compound to be tested was subjected to 10 minutes of reaction at 30° C. in a reaction mixture containing 40 mM Tris-HCl (pH 8.0), 5 mM MgCl2, 4 mM 2-mercaptoethanol, 10 μM rolipram (a type IV phosphodiesterase selective inhibitor), 1 μM cAMP, 10 nM ^3 H-cAMP (in the case of type V phosphodiesterase, 1 μM cAMP and 10 nM ^3 H-cAMP are replaced by 1 μM cGMP and 100 nM ^3 H-cGMP) and each of the isozyme stock solutions. […]

Assay [2] deals with T2, type V phosphodiesterase (Homo sapiens, UniProt O76074).
T2 construct: from tissue; host or cells: human peripheral blood granulocyte fraction, soluble, Q Sepharose
Kind of assay: Phosphodiesterase inhibition activity (in vitro), Type V. In kind it is biochemical, human (peripheral blood of a healthy person). Conditions: 1 μM cGMP.
Excerpt: as §1, §2
4) The thus obtained soluble fraction was applied to a column of 1.6×10 cm packed with Q Sepharose which had been equilibrated with buffer D. Next, the column was washed with 120 ml of buffer D to remove non-absorbed protein. Phosphodiesterase was eluted with 300 ml of buffer D having 0.05 to 1.25M linear gradient of sodium acetate to collect fractions each containing 5.0 ml eluate. Each fraction was checked for cAMP- and cGMP-metabolizing phosphodiesterase activities. Fractions having only cGMP metabolizing activity were collected to be used as the type V phosphodiesterase stock solution.
as §3
as §4, with “solutions. After completion of the reaction, the reaction mixture was boiled at 90° C. for 1 minute, ice-cooled, mixed with 1 unit of 5'-nucleotidase and then subjected to 10 minutes of reaction at 30° C., and the reaction was stopped by adding 1 ml of methanol.” for “solutions.”

Take `CCc1cc(C)c2c(-c3cccc(Cl)c3)cc(=O)n(CC)c2n1` [Example 39, 4-(3-Chlorophenyl)-1,7-diethyl-5-methyl-1,8-naphthyridin-2(1H)-one]: the half-maximal inhibitory concentration (IC50) in assay [1] was > 3000 nM; in assay [2] it was 1050 nM.
